Key:
C-Raf = C-Raf (Homo sapiens, UniProt P04049); experiment: Kinase activity assay, C-Raf
Kit = Kit (Homo sapiens, UniProt P10721); experiment: Kinase activity assay, Kit
Kdr = Kdr (Homo sapiens, UniProt P35968); experiment: Kinase activity assay, Kdr
B-Raf V600E = B-Raf V600E (Homo sapiens, UniProt P15056, V600E); experiment: Kinase activity assay, B-Raf V600E; type: biochemical; settings: read-out: activity toward kinase B-Raf V600E, IC50
A-Raf = target: T1, A-Raf (Homo sapiens, UniProt P10398); experiment: Kinase activity assay, A-Raf
T1 sequence (P10398 1-606): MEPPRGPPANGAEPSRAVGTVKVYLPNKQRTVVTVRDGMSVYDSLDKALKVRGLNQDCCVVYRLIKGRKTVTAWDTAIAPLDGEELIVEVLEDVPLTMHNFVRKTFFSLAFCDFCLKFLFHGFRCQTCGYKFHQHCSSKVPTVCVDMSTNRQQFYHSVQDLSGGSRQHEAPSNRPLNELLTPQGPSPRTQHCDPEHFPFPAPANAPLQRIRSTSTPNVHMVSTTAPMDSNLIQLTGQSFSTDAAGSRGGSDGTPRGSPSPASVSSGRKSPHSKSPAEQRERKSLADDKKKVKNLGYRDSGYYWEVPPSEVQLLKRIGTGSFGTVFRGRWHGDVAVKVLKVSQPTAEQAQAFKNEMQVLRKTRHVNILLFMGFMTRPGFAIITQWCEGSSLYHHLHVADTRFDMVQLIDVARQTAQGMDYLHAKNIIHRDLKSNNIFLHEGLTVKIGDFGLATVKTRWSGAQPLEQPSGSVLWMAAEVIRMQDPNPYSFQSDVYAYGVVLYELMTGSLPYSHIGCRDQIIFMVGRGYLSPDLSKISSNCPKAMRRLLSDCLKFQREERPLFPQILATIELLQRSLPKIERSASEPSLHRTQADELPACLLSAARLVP

MAP4K4 = MAP4K4 (Homo sapiens, UniProt O95819); experiment: Kinase activity assay, MAP4K4
Chain of MAP4K4 (O95819 whole entry): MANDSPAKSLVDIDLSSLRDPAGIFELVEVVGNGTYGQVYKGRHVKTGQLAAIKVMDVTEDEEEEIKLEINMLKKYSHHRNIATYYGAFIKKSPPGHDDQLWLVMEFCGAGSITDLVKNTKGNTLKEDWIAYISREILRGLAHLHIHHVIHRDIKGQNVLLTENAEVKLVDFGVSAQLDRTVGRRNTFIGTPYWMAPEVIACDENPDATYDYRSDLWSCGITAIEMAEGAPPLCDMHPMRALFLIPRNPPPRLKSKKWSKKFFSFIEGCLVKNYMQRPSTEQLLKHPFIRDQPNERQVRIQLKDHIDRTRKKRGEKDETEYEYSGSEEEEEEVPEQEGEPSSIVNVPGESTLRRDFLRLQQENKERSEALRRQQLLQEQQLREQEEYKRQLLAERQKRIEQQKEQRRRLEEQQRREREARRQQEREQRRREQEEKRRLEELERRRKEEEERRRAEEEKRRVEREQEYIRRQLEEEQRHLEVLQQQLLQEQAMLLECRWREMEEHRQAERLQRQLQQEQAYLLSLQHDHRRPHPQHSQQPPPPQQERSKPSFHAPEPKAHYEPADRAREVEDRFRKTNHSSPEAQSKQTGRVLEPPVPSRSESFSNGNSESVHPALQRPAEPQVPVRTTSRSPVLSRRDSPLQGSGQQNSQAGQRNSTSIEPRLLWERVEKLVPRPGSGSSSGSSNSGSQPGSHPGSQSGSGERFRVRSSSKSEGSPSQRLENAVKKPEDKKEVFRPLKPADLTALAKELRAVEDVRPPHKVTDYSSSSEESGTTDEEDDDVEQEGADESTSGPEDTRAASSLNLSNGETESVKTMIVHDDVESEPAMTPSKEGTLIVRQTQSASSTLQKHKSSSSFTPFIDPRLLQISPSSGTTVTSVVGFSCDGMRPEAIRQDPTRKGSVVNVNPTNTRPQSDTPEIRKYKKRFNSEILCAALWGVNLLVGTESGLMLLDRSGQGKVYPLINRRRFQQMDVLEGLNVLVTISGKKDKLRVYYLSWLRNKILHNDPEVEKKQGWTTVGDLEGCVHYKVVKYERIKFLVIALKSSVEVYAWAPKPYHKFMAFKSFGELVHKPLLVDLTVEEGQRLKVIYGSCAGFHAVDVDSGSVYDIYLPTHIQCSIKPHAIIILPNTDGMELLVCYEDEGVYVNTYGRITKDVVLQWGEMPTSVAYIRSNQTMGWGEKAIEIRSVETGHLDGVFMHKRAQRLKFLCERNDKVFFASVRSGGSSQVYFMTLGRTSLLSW

B-Raf = B-Raf (Homo sapiens, UniProt P15056); experiment: Kinase activity assay, B-Raf; type: biochemical; settings: read-out: activity toward kinase B-Raf, IC50
Src = Src (Homo sapiens, UniProt P12931); experiment: Kinase activity assay, Src
Chain of Src (P12931 whole entry): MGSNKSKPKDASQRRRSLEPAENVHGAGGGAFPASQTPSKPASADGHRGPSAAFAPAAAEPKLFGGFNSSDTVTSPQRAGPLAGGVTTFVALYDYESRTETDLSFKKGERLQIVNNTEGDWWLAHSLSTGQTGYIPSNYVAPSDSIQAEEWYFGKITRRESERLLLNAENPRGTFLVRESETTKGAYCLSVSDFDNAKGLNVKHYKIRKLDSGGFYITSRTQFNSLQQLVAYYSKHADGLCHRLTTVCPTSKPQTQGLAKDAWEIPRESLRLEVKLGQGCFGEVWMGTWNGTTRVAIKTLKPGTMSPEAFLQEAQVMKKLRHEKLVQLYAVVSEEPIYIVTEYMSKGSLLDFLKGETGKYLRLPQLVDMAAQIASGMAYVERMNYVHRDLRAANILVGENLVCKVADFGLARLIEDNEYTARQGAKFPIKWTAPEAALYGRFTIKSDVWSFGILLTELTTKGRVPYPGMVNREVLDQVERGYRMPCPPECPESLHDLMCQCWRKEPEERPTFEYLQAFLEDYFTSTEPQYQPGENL

Fms = Fms (Homo sapiens, UniProt P07333); experiment: Kinase activity assay, Fms

Measured: IC50

Chain of Kit (P10721 26-976): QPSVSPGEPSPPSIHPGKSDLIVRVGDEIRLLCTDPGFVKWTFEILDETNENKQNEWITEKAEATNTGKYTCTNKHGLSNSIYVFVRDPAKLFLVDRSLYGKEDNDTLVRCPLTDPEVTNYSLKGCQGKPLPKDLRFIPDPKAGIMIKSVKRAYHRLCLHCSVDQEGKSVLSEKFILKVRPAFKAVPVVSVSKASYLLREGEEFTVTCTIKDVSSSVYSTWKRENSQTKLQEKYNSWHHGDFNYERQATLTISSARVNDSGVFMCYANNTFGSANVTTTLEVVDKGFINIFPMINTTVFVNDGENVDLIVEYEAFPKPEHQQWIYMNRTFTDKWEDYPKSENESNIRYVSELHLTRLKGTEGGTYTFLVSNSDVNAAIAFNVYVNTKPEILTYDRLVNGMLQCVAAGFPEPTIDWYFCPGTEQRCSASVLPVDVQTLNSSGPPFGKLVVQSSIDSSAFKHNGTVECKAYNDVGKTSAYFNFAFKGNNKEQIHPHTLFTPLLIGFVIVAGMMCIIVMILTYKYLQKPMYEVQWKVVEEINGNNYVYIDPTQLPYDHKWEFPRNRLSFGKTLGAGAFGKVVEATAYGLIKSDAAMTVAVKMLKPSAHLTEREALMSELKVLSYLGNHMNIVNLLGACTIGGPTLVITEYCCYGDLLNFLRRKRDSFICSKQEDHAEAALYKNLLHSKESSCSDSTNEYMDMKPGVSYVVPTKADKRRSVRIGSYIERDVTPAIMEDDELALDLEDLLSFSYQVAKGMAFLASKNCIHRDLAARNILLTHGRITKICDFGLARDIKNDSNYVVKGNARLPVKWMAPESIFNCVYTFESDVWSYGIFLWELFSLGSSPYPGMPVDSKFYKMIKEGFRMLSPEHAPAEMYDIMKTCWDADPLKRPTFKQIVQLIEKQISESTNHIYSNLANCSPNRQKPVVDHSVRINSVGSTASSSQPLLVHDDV
Chain of C-Raf (P04049 whole entry): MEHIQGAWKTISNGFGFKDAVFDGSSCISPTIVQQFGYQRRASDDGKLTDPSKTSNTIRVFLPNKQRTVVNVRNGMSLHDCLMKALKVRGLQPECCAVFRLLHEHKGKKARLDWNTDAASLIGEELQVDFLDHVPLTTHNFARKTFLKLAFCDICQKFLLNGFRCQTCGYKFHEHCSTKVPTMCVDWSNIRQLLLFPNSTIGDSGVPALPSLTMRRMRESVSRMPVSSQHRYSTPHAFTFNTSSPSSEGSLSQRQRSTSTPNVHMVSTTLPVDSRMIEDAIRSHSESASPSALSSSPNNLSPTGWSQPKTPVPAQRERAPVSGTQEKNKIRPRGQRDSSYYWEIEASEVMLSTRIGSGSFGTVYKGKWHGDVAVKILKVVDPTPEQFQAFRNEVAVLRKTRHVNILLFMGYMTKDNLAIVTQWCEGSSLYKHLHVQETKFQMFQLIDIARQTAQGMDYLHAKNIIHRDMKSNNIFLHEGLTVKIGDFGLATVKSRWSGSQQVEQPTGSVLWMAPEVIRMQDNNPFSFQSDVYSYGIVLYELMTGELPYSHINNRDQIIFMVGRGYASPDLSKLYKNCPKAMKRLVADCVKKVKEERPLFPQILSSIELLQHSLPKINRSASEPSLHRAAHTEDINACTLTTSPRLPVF
Chain of Kdr (P35968 20-1356): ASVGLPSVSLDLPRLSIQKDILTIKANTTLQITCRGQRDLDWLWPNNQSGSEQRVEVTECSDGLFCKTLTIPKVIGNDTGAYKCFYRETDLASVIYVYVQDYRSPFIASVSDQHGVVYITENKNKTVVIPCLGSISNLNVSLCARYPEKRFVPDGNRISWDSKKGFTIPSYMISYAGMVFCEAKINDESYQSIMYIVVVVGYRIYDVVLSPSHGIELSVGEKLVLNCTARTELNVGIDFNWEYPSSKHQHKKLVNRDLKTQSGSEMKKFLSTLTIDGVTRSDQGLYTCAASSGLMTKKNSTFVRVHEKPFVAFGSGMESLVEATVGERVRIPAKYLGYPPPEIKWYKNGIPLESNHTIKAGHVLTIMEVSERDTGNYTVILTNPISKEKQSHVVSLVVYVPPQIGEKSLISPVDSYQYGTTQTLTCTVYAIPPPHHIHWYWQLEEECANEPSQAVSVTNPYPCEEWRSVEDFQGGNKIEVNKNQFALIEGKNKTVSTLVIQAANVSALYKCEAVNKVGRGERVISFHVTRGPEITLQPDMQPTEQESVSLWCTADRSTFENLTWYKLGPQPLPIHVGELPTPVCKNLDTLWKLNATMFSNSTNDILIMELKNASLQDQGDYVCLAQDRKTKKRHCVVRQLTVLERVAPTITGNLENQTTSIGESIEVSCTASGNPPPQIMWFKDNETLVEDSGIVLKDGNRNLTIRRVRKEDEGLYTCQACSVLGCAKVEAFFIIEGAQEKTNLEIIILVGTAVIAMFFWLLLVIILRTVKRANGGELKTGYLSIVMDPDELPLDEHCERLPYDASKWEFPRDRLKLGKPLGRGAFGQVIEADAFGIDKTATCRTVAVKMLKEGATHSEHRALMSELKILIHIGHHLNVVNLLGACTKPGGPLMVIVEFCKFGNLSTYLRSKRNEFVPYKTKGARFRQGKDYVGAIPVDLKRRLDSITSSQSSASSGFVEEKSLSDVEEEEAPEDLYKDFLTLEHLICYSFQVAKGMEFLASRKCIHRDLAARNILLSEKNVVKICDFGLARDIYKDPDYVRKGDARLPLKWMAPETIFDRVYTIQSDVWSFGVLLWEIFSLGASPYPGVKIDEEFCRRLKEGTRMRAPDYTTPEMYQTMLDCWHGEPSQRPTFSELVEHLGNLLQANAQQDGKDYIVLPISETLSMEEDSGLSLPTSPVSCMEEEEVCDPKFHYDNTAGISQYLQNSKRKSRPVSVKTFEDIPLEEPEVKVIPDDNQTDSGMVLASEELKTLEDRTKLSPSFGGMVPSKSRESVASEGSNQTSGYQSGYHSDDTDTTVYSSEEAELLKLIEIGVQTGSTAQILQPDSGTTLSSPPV

CS(=O)(=O)Nc1ccc(F)c(C(=O)c2c[nH]c3ncc(Cl)cc23)c1F [P-2291, N-[3-(5-Chloro-1H-pyrrolo[2,3-b]pyridine-3-carbonyl)-2,4-difluoro-phenyl]-methanesulfonamide]
not listed: B-Raf | Src | Fms
≤ 10 µM: all other assays above

O=C(c1c(F)ccc(NS(=O)(=O)c2ncn[nH]2)c1F)c1c[nH]c2nccc(Cl)c12 [P-2066, 2H-[1,2,4]Triazole-3-sulfonic acid [3-(4-chloro-1H-pyrrolo[2,3-b]pyridine-3-carbonyl)-2,4-difluoro-phenyl]-amide]
not listed: Kit | Src | Fms
≤ 10 µM: all other assays above

Cc1cnc2[nH]cc(C(=O)c3c(F)ccc(NS(=O)(=O)c4ncn[nH]4)c3F)c2c1 [P-2065, 2H-[1,2,4]Triazole-3-sulfonic acid [2,4-difluoro-3-(5-methyl-1H-pyrrolo[2,3-b]pyridine-3-carbonyl)-phenyl]-amide]
not listed: Kit | B-Raf | Fms
≤ 10 µM: all other assays above

COc1ccnc2[nH]cc(C(=O)c3c(F)ccc(NS(=O)(=O)c4ccccn4)c3F)c12 [P-2076, Pyridine-2-sulfonic acid [2,4-difluoro-3-(4-methoxy-1H-pyrrolo[2,3-b]pyridine-3-carbonyl)-phenyl]-amide]
not listed: Kit | Kdr | Fms
≤ 10 µM: all other assays above

CCS(=O)(=O)Nc1ccc(F)c(C(=O)c2c[nH]c3ncc(C)cc23)c1F [P-2277, Ethanesulfonic acid [2,4-difluoro-3-(5-methyl-1H-pyrrolo[2,3-b]pyridine-3-carbonyl)-phenyl]-amide]
not listed: Kit | Fms
≤ 10 µM: all other assays above

CCCS(=O)(=O)Nc1ccc(F)c(C(=O)c2c[nH]c3ncc(C(F)(F)F)cc23)c1F [P-2182, Propane-1-sulfonic acid [2,4-difluoro-3-(5-trifluoromethyl-1H-pyrrolo[2,3-b]pyridine-3-carbonyl)-phenyl]-amide]
not listed: Src | Fms
≤ 10 µM: all other assays above

O=C(c1c(F)ccc(NS(=O)(=O)C(F)(F)F)c1F)c1c[nH]c2ncc(Cl)cc12 [P-2346, N-[3-(5-Chloro-1H-pyrrolo[2,3-b]pyridine-3-carbonyl)-2,4-difluoro-phenyl]-C,C,C-trifluoro-methanesulfonamide]
not listed: Kit | Fms
≤ 10 µM: all other assays above

Cc1cnc2[nH]cc(C(=O)c3c(F)ccc(NS(=O)(=O)C4CCC4)c3F)c2c1 [P-2362, Cyclobutanesulfonic acid [2,4-difluoro-3-(5-methyl-1H-pyrrolo[2,3-b]pyridine-3-carbonyl)-phenyl]-amide]
≤ 10 µM: C-Raf | Kdr | B-Raf V600E | A-Raf | MAP4K4

Cc1cnc2[nH]cc(C(=O)c3c(F)ccc(NS(C)(=O)=O)c3F)c2c1 [P-2289, N-[2,4-Difluoro-3-(5-methyl-1H-pyrrolo[2,3-b]pyridine-3-carbonyl)-phenyl]-methanesulfonamide]
not listed: B-Raf | Src | Fms
≤ 10 µM: all other assays above

CCS(=O)(=O)Nc1ccc(F)c(C(=O)c2c[nH]c3nccc(Cl)c23)c1F [P-2276, Ethanesulfonic acid [3-(4-chloro-1H-pyrrolo[2,3-b]pyridine-3-carbonyl)-2,4-difluoro-phenyl]-amide]
not listed: Kit | Fms
≤ 10 µM: all other assays above

Cc1cnc2[nH]cc(C(=O)c3c(F)ccc(NS(=O)(=O)c4cccnc4)c3F)c2c1 [P-2069, Pyridine-3-sulfonic acid [2,4-difluoro-3-(5-methyl-1H-pyrrolo[2,3-b]pyridine-3-carbonyl)-phenyl]-amide]
not listed: Kit | Kdr | Fms
≤ 10 µM: all other assays above

CCS(=O)(=O)Nc1ccc(F)c(C(=O)c2c[nH]c3ncc(Cl)cc23)c1F [P-2274, Ethanesulfonic acid [3-(5-chloro-1H-pyrrolo[2,3-b]pyridine-3-carbonyl)-2,4-difluoro-phenyl]-amide]
not listed: Src | Fms
≤ 10 µM: all other assays above

CCCS(=O)(=O)Nc1ccc(F)c(C(=O)c2c[nH]c3ncc(CN4CCOCC4)cc23)c1F [P-2244, Propane-1-sulfonic acid [2,4-difluoro-3-(5-morpholin-4-ylmethyl-1H-pyrrolo[2,3-b]pyridine-3-carbonyl)-phenyl]-amide]
≤ 10 µM: C-Raf | B-Raf | B-Raf V600E | A-Raf | MAP4K4

O=C(c1c(F)ccc(NS(=O)(=O)c2ncn[nH]2)c1F)c1c[nH]c2ncc(Cl)cc12 [P-2062, 2H-[1,2,4]Triazole-3-sulfonic acid [3-(5-chloro-1H-pyrrolo[2,3-b]pyridine-3-carbonyl)-2,4-difluoro-phenyl]-amide]
not listed: Kit | B-Raf | Fms
≤ 10 µM: all other assays above

N#Cc1cnc2[nH]cc(C(=O)c3c(F)ccc(NS(=O)(=O)c4ncn[nH]4)c3F)c2c1 [P-2064, 2H-[1,2,4]Triazole-3-sulfonic acid [3-(5-cyano-1H-pyrrolo[2,3-b]pyridine-3-carbonyl)-2,4-difluoro-phenyl]-amide]
≤ 10 µM: C-Raf | Kdr | B-Raf V600E | A-Raf | MAP4K4

N#Cc1cnc2[nH]cc(C(=O)c3c(F)ccc(NS(=O)(=O)c4ccccn4)c3F)c2c1 [P-2063, Pyridine-2-sulfonic acid [3-(5-cyano-1H-pyrrolo[2,3-b]pyridine-3-carbonyl)-2,4-difluoro-phenyl]-amide]
not listed: Kit | Kdr | Fms
≤ 10 µM: all other assays above

O=C(c1c(F)ccc(NS(=O)(=O)C(F)(F)F)c1F)c1c[nH]c2ncc(-c3ccc(Cl)cc3)cc12 [P-2343, N-{3-[5-(4-Chloro-phenyl)-1H-pyrrolo[2,3-b]pyridine-3-carbonyl]-2,4-difluoro-phenyl}-C,C,C-trifluoro-methanesulfonamide]
not listed: MAP4K4
≤ 10 µM: all other assays above

COc1cnc2[nH]cc(C(=O)c3c(F)ccc(NS(C)(=O)=O)c3F)c2c1 [P-2288, N-[2,4-Difluoro-3-(5-methoxy-1H-pyrrolo[2,3-b]pyridine-3-carbonyl)-phenyl]-methanesulfonamide]
not listed: B-Raf | Src | Fms
≤ 10 µM: all other assays above

Cc1cnc2[nH]cc(C(=O)c3c(F)ccc(NS(=O)(=O)CC(F)(F)F)c3F)c2c1 [P-2337, 2,2,2-Trifluoro-ethanesulfonic acid [2,4-difluoro-3-(5-methyl-1H-pyrrolo[2,3-b]pyridine-3-carbonyl)-phenyl]-amide]
not listed: Kit | B-Raf | Fms
≤ 10 µM: all other assays above

N#Cc1cnc2[nH]cc(C(=O)c3c(F)ccc(NS(=O)(=O)C4CCCCC4)c3F)c2c1 [P-2366, Cyclohexanesulfonic acid [3-(5-cyano-1H-pyrrolo[2,3-b]pyridine-3-carbonyl)-2,4-difluoro-phenyl]-amide]
not listed: Kdr | Src | Fms
≤ 10 µM: all other assays above

— patent publication US20120122860A1, “SOLID FORMS OF SULFONAMIDES AND AMINO ACIDS” (Plexxikon, Inc., priority 2009, published 2012)
